The record followed here is ChEMBL document CHEMBL1152066, “7,10-Bis(2-mercapto-2-methyl)propyl-7,10-diazapalmitic acid: a novel, N2S2 ligand for technetium-99m” (Bioorg Med Chem Lett, 1996).

Common to all, as to assay type: ADME, organism-based
Common to all, as to details: in vivo

For data set [1], the system named is Rattus norvegicus. As to the kind of experiment: Distribution of radioactivity in heart of fasted rats following concomitant intravenous administration of [99mTc]-7. value expressed as % injected dose / organ.
Data set [2] relates to Rattus norvegicus. As to the kind of experiment: Distribution of radioactivity in kidney of fasted rats following concomitant intravenous administration of [99mTc]7. value expressed as % injected dose / organ.
Data set [3] relates to Rattus norvegicus. As to the kind of experiment: Distribution of radioactivity in lung of fasted rats following concomitant intravenous administration of [99mTc]7. value expressed as % injected dose / organ.
For data set [4], the system named is Rattus norvegicus. As to the kind of experiment: Distribution of radioactivity in spleen of fasted rats following concomitant intravenous administration of [99mTc]-7. value expressed as % injected dose / organ.
The subject of data set [5] is Rattus norvegicus. As to the kind of experiment: (§1) Distribution of radioactivity in stomach of fasted rats following concomitant intravenous administration of [99mTc]7. value expressed as % injected dose / organ.
Data set [6] concerns Rattus norvegicus. Described as §1. The source holds these as a separate data set.

Several values for one entry are separate records, joined by “and”; a condition that tells them apart may be missing. Equal values may be shown once.

For `CCCCCCN(CCN(CCCCCC(=O)O)CC(C)(C)S)CC(C)(C)S`, the Injected dose/organ in the data set with Rattus norvegicus [1] was 0.22% and 0.56%; in the data set on Rattus norvegicus [2] it was 3.42% and 1.18%; in the data set on Rattus norvegicus [3], 1.19% and 0.73%; in the data set with Rattus norvegicus [4] it was 0.7% and 0.78%; in the data set with Rattus norvegicus [5] it was 0.27% and 0.18%.

Regarding `O=C(O)CCCCCCCCCCCCCCc1ccc([125I])cc1`, the Injected dose/organ in the data set with Rattus norvegicus [1] is 1.86% and 2.94%; in the data set on Rattus norvegicus [2] it was 2.07% and 0.71%; in the data set on Rattus norvegicus [3], 1.25% and 0.77%; in the data set with Rattus norvegicus [4], 0.54% and 0.57%; in the data set on Rattus norvegicus [6], 0.42%; in the data set with Rattus norvegicus [5], 0.27%.
